Literature values in patent US20220347185A1, “IBOGAINE FORMULATIONS” (CAAMTECH, INC., priority 2019, published 2022).

Legend:
humans = details: Mash et al. 2000
rats = details: single dose, Rodriguez et al. 2020
[1] = Dzoljic et al. 1988
heroin addicts = details: 1962
mice = details: da Silva et al. 2006

| Compound | depressive symptoms (humans) | antidepressant effects (rats) | withdrawal from narcotics addiction [1] | effectiveness of multiple administrations versus a single dose (rats and mice; additional study results) | self-administration of opiates (rats and mice; rats and mice) | cravings and withdrawal symptoms (heroin addicts) | treating substance addiction (review papers and meta-analyses) | treating opioid addiction (several current studies) | anticonvulsive effect (mice) | antidepressive effect (mice) | anxiolytic effect (mice) |
| --- | --- | --- | --- | --- | --- | --- | --- | --- | --- | --- | --- |
| CC[C@H]1C[C@@H]2C[C@H]3c4[nH]c5ccc(OC)cc5c4CCN(C2)[C@@H]13 [ibogaine] | significantly decreased depressive symptoms | caused antidepressant effects | relieve withdrawal from narcotics addiction | more effective in multiple administrations over time than from a single dose | reduce or interrupt the self-administration of opiates | marked reductions in their cravings and withdrawal symptoms | effective for treating substance addiction | effective for treating opioid addiction | – | – | – |
| CO[C@H]1C=C2[C@H]3CN(Cc4cc5c(cc43)OCO5)[C@H]2C[C@@H]1O [montanine] | – | – | – | – | – | – | – | – | anticonvulsive | antidepressive effects | anxiolytic |
| CC[C@H]1C[C@@H]2C[C@H]3c4[nH]c5ccc(O)cc5c4CCN(C2)[C@@H]13 [noribogaine] | – | caused antidepressant effects | – | – | – | – | – | – | – | – | – |
